{"source": "paper PMC8967716", "about": "“Inhibition of calcium-triggered secretion by hydrocarbon-stapled peptides” (Nature, 2022)", "biological_target": "T1, neuronal SNAREs and Syt1(QM) (Rattus norvegicus, UniProt P21707, E295A/R281A/R398A/R399A/Y338W)", "T1 construct": "made in house", "T1 sequence (P21707 whole entry R281A/E295A/Y338W/R398A/R399A)": "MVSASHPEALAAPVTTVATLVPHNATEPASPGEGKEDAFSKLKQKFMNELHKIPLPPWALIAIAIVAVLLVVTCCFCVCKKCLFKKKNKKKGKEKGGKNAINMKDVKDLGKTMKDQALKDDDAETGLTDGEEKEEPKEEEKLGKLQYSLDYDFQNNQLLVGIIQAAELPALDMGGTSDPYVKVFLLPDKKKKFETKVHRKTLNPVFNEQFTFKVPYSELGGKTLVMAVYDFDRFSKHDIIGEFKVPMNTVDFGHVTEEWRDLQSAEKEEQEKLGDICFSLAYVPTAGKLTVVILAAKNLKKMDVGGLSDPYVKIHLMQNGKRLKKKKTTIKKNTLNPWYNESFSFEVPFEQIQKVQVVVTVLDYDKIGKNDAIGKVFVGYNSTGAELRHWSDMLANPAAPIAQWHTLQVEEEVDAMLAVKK", "test": "Single-vesicle content mixing assay, neuronal SNAREs and Syt1(QM)", "assay_type": "biochemical", "key": {"[1]": {"details": "10 μM SP9, each value one repeat experiment"}, "[2]": {"details": "500 μM Ca2+, 10 μM SP9, each value one repeat experiment"}}, "note": "“And” between values parts separate entries of the source, which are not always exact repeats. Identical values can stand only once. Positions of bridges follow the written chain, without caps; N, C: chain ends. Non-standard residues stand in square brackets, D forms with d. Residues, ends and D or L forms follow the SMILES beside them. S5 = C=CCCC[C@](C)(N)C(=O)O"}
{"smiles": "CC[C@H](C)[C@H](NC(=O)[C@]1(C)CCCC=CCCC[C@](C)(NC(=O)[C@H](CCC(=O)O)NC(=O)[C@H](CCC(=O)O)NC(C)=O)C(=O)N[C@@H](CCCCN)C(=O)N[C@@H](CC(=O)O)C(=O)N[C@@H](C)C(=O)N1)C(=O)N[C@@H](CCCNC(=N)N)C(=O)N[C@@]1(C)CCCC=CCCC[C@@](C)(C(=O)N[C@@H](CC(=O)O)C(=O)N[C@@H](CCC(=O)O)C(=O)N[C@@H](CCC(N)=O)C(=O)N[C@@H](CS)C(N)=O)NC(=O)[C@H](CCSC)NC(=O)[C@H](C(C)C)NC(=O)[C@H](CC(C)C)NC1=O", "note": "[SP9] (Ac-EE[S5]KDA[S5]IR[S5]LVM[S5]DEQC-NH2; staple 3-7, 10-14)", "values": [{"measurement": "Ca2+ independent fusion per sec (average probability)", "setting": "[1]", "value": "0.0007051 and 0.0008431 and 0.0008917"}, {"measurement": "Vesicle association", "setting": "[1]", "value": "67 and 40 and 70"}, {"measurement": "Ca2+ triggered fusion accumulative probability (within 1 min)", "setting": "[2]", "value": "0.0513 and 0.04654 and 0.06303"}, {"measurement": "Ca2+ triggered fusion amplitude (first 1-sec time bin)", "setting": "[2]", "value": "0.004413 and 0.005288 and 0.004669"}, {"measurement": "effect on Ca2+-independent or Ca2+-triggered fusion with Syt1(QM)", "setting": "SP9 vs no peptide", "value": "little effect"}]}
